# Assay results as given in US20090131356A1, “miR-15, miR-26, miR-31, miR-145, miR-147, miR-188, miR-215, miR-216, miR-331, mmu-miR-292-3P REGULATED GENES AND PATHWAYS AS TARGETS FOR THERAPEUTIC INTERVENTION” (ASURAGEN, INC., priority 2006, published 2009).
# Tests used:
# [1] = test system: PPC-1 cells; experiment: Alamar Blue proliferation assay, PPC-1; assay type: cell-based, human; settings: 30 nM, normalized to negative control miRNA (100% proliferation)
# From the text: The inventors assessed the therapeutic effect of hsa-miR-147 for prostate cancer by using 4 individual human prostate cancer cell lines. To measure cellular proliferation of prostate cancer cells, the following prostate cancer cell lines were used: PPC-1 and PC3, derived from a bone metastasis; Du145, derived from a brain metastasis; RWPE2, derived from prostate cells immortalized by human papillomavirus 18 and transformed by the K-RAS oncogene (Bello et al., 1997; Stone et al., 1978; Brothman et al., 1991). PC3, PPC-1, and Du145 cells lack expression of the prostate-specific antigen (PSA) and are independent of androgen receptor (AR) signaling. In contrast, RWPE2 cells test positive for PSA and AR.
# PPC-1, Du145 and RWPE2 cells were transfected with synthetic hsa-miR-147 (Pre-miR™-hsa-miR-147, Ambion cat. no. AM17100) or negative control miRNA (NC; Pre-miR™ microRNA Precursor Molecule-Negative Control #2; Ambion cat. no. AM17111) in a 96-well format using a lipid-based transfection reagent. […] Proliferation was assessed 4-7 days post-transfection using Alamar Blue™ (Invitrogen) following the manufacturer's instructions. […] Fluorescent light units (FLU) were measured after 3 hours, normalized to the control, and plotted as percent change in proliferation. […]
# [2] = test system: PC3 human prostate cancer cells; experiment: Long-term growth curve with repeated electroporation, PC3; assay type: cell-based; settings: 1.6 μM electroporated, repeated on days 7 and 14; by day 21
# Procedure: To evaluate the therapeutic activity of hsa-miR-147 over an extended period of time, the inventors conducted growth curve experiments in the presence of miRNA for up to 21 days. Since in vitro transfections of naked interfering RNAs, such as synthetic miRNA, are transient by nature and compromised by the dilution of the oligo during ongoing cell divisions, miRNA was administered at multiple time points (Bartlett et al., 2006; Bartlett et al., 2007). To accommodate miRNA delivery into a large quantity of cells, the inventors employed the electroporation method to delivery hsa-miR-147 or negative control miRNA into PC3 and Du145 human prostate cancer cells. Briefly, 1×10^6 PC3 cells and 0.5×10^6 Du145 cells were electroporated with 1.6 μM hsa-miR-147 or negative control using the BioRad Gene Pulser Xcell™ instrument (BioRad Laboratories Inc., Hercules, Calif., USA), seeded and propagated in regular growth medium. Experiments with PC3 and Du145 cells were carried out in triplicates. When the control cells reached confluence (days 7 and 14), cells were harvested, counted and electroporated again with the respective miRNAs. […] The population doubling was calculated from these electroporation events using the formula PD=ln(Nf/N0)/ln2 and adjusting for the fact that approximately 72% of newly seeded cells adhere to the plate. […]
# [3] = test system: A549 and H1299 cells; experiment: Dose-dependent Alamar Blue proliferation assay (0 pM to 3 nM); assay type: cell-based, human; settings: for % proliferation: normalized to mock-transfected cells (0 pM miRNA)
# Procedure: The inventors determined sensitivity and specificity of hsa-miR-147 by administering hsa-miR-147 or negative control miRNA at increasing concentrations, ranging from 0 pM to 3 nM. Delivery of miRNA and cellular proliferation of A549 and H1299 cells was assessed as described above. Alamar Blue values were normalized to values obtained from mock-transfected cells (0 pM=100% proliferation). As shown in FIG. 3 and Table 8, increasing amounts of negative control miRNA had no effect on cellular proliferation of A549 or H1299 cells. In contrast, the growth-inhibitory phenotype of hsa-miR-147 is dose-dependent and correlates with increasing amounts of hsa-miR-147. Hsa-miR-147 induces a therapeutic response at concentrations as low as 300 pM.
substance,measurement,setting,value
"hsa-miR-147: Synthetic pre-miR-147 (Ambion AM17100; Dharmacon in vivo); mature sequence GUGUGUGGAAAUGCUUCUGC, MIMAT0000251, SEQ ID NO:114 (synthetic pre-miR (Ambion/Dharmacon), chemistry not given here; listed as Homo sapiens)",% proliferation,[1],76.98%
same,fate of PC3 cells in long-term growth curve,[2],eliminated
same,% proliferation,"[3]; A549 Cells, 3 pM",104.77%
same,% proliferation,"[3]; A549 Cells, 30 pM",99.22%
same,% proliferation,"[3]; A549 Cells, 300 pM",88.24%
same,% proliferation,"[3]; A549 Cells, 3,000 pM",75.78%
same,% proliferation,"[3]; H1299 Cells, 3 pM",93.08%
same,% proliferation,"[3]; H1299 Cells, 30 pM",88.20%
same,% proliferation,"[3]; H1299 Cells, 300 pM",81.82%
same,% proliferation,"[3]; H1299 Cells, 3,000 pM",69.70%
same,lowest concentration inducing a therapeutic response,"[3]; concentrations 0 pM to 3 nM, normalized to mock-transfected cells",300 pM
